Source: patent US20210186838A1, “ACTIVE SUBSTANCE COMBINATIONS OF N-(4-AMINO-2-METHYLQUINOLIN-6-YL)-2-((4-ETHYLPHENOXY)METHYL)BENZAMIDE AND ONE OR MORE COSMETICALLY OR DERMATOLOGICALLY ACCEPTABLE PRESERVATIVES AND/OR PRESERVATIVE AUXILIARIES” (BEIERSDORF AG, priority 2017, published 2021)

Key:
subcutaneous adipocytes = experiment: lipid assay (AdipoRed staining of total lipid); assay type: cell-based; conditions: for Assay in which the combination showed better activity than the corresponding active substance alone: Lipid: active substance combined with 10 ng/ml N-(4-amino-2-methylquinolin-6-yl)-2-((4-ethylphenoxy)methyl)benzamide, adipocytes, one week, AdipoRed, assay named in cell = better activity
Experimental: The lipid assay is performed on subcutaneous adipocytes. Cell culture dishes are inoculated with preadipocytes, which undergo differentiation into adipocytes. This is followed by treatment with the active substance for one week, during which the cells synthesize lipids and store them in vesicles. The total amount of lipid as a function of active substance effects is determined at the end of the culture period. This is done by staining the cell monolayer with the lipophilic fluorescent dye AdipoRed, followed by quantification by fluorescence spectroscopy.

human adipocytes = experiment: LDH (lactate dehydrogenase) cytotoxicity assay; conditions: for Assay in which the combination showed better activity than the corresponding active substance alone: LDH: active substance combined with 10 ng/ml N-(4-amino-2-methylquinolin-6-yl)-2-((4-ethylphenoxy)methyl)benzamide, LDH in medium supernatant, assay named in cell = better activity (less LDH escape)
Experimental: The third assay performed is the LDH (lactate dehydrogenase) cytotoxicity assay. In this assay, the metabolic enzyme LDH is detected in the medium supernatant of the cell monolayer by adding a substrate for the enzyme to the cell culture supernatant. Reaction of the latter produces a color change, which is determined photometrically. The magnitude of the color change correlates here with the amount of LDH in the cell culture supernatant.
For all assays, the active substances were present as 1000× stocks dissolved to 10 mM in DMSO and were diluted 1:1000 in the appropriate cell culture medium for use.

dermal fibroblasts = experiment: viability assay (BrdU incorporation, cell division rate); assay type: cell-based; conditions: 24 h; for Assay in which the combination showed better activity than the corresponding active substance alone: BrdU: active substance combined with 10 ng/ml N-(4-amino-2-methylquinolin-6-yl)-2-((4-ethylphenoxy)methyl)benzamide, assay named in cell = better activity
From the text: The cells take up this synthetic nucleic acid, which is detectable by fluorescence detection, and incorporate it into newly synthesized genetic material during cell division. […] This allows conclusions to be drawn about the effect of the individual active substances on cell viability.

Compound	Assay in which the combination showed better activity than the corresponding active substance alone: Lipid (subcutaneous adipocytes)	Assay in which the combination showed better activity than the corresponding active substance alone: BrdU (dermal fibroblasts)	further results
CCCCC(O)CO (stereo not drawn) [1,2-Hexanediol/Hydiol 6, 1,2-Hexanediol]	Lipid	–	Assay in which the combination showed better activity than the corresponding active substance alone: LDH (human adipocytes): LDH
OCc1ccccc1 [Benzyl alcohol]	Lipid	–	–
OCCCCO [Butylene glycol/Natan, Butylene glycol]	Lipid	BrdU	–
CCOC(=O)c1ccc(O)cc1 [Ethylparaben/Konpar A, Ethylparaben]	–	BrdU	Assay in which the combination showed better activity than the corresponding active substance alone: LDH (human adipocytes): LDH
CCCCCCCC(=O)OCC(O)CO (stereo not drawn) [Glyceryl caprylate/emulsifier CY, Glyceryl caprylate]	–	BrdU	–
CC1(C)C(=O)N(CO)C(=O)N1CO [Kondant/DMDM hydantoin, DMDM hydantoin]	Lipid	BrdU	–
Cn1sccc1=O [Methylisothiazolinone/Konlon 950, Methylisothiazolinone]	Lipid	BrdU	–
CC(CO)CO [Methylpropanediol/Lolo, Methylpropanediol]	Lipid	–	–
CCc1ccc(OCc2ccccc2C(=O)Nc2ccc3nc(C)cc(N)c3c2)cc1 [N-(4-Amino-2-methylquinolin-6-yl)-2-((4-ethylphenoxy)methyl)benzamide]	–	–	rate of incorporation of BrdU (dermal fibroblasts; in combination with a preservative versus the corresponding preservative alone, FIG. 1): increase; accumulation of AdipoRed (differentiation performance of the adipocytes) (subcutaneous adipocytes; in combination with a preservative versus the corresponding preservative alone, one week treatment, FIG. 2): increase; rate of escape of LDH (human adipocytes; in combination with a preservative versus the corresponding preservative alone, human adipocytes, FIG. 3): decrease
Cc1cc(CC(C)CC(C)(C)C)n(O)c(=O)c1.NCCO (stereo not drawn) [Piroctone olamine/Octupus, Piroctone olamine]	Lipid	BrdU	–
O=C([O-])c1ccccc1.[Na+] [Sodium benzoate]	Lipid	–	Assay in which the combination showed better activity than the corresponding active substance alone: LDH (human adipocytes): LDH
O=C([O-])c1ccccc1O.[Na+] [Sodium salicylate]	Lipid	–	–
CCCCCCC(O)CO (stereo not drawn) [octane-1,2-diol]	–	BrdU	Assay in which the combination showed better activity than the corresponding active substance alone: LDH (human adipocytes): LDH
Phenoxyethanol [Phenoxyethanol/Phenoxetol]	Lipid	–	–
